In brackets after ≈: the same amount, converted by molar mass.
Assays:
Assay in all cases: in vitro antibacterial evaluation, MIC by broth dilution
Format in all cases: cell-based
Enterococcus sp. = details: broth dilution, 18 hours at 35° C.; for MIC Enterococcus faecalis (ATCC 29212): strain ATCC 29212; for MIC Enterococcus faecalis (GC 2242): strain GC 2242; for MIC Enterococcus faecium (GC 2243): strain GC 2243; for MIC Enterococcus faecalis (GC 2691): strain GC 2691; for MIC Enterococcus faecalis (GC 3059): strain GC 3059; for MIC Enterococcus faecalis (GC 4552): strain GC 4552; for MIC Enterococcus faecalis (GC 4553): strain GC 4553; for MIC Enterococcus faecalis (GC 4554): strain GC 4554; for MIC Enterococcus faecium (GC 4556): strain GC 4556; for MIC Enterococcus faecium (GC 4557): strain GC 4557; for MIC Enterococcus avium (GC 4558): strain GC 4558; for MIC Enterococcus faecalis (GC 6189): strain GC 6189
Outline: (§1)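 Step 1: dilute antibiotic across 64-0.06 μg/mL in Muller-Hinton II […]. Step 2: inoculate at 5×10^5 CFU/mL.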

Streptococcus sp. = details: broth dilution, 18 hours at 35° C.; for MIC Streptococcus pneumoniae (ATCC 6301): strain ATCC 6301; for MIC Streptococcus pneumoniae (GC 1894): strain GC 1894; for MIC Streptococcus pyogenes (GC 4563): strain GC 4563; for MIC Streptococcus agalactiae (GC 4564): strain GC 4564; for MIC Streptococcus pneumoniae (GC 4565): strain GC 4565
Outline: as §1

Escherichia coli = system: Escherichia coli
Outline: as §1

Staphylococcus sp. = details: broth dilution, 18 hours at 35° C.; for MIC Staphylococcus aureus (GC 1131): strain GC 1131
Outline: as §1

MIC Enterococcus faecalis (ATCC 29212) (Enterococcus sp.; inoculum 5×10^5 CFU/mL): 1 µg/mL (≈ 0.672 µM) | MIC Enterococcus faecalis (GC 2242) (Enterococcus sp.; inoculum 5×10^5 CFU/mL): 2 µg/mL (≈ 1.34 µM) | MIC Enterococcus faecium (GC 2243) (Enterococcus sp.; inoculum 5×10^5 CFU/mL): 2 µg/mL (≈ 1.34 µM) | MIC Enterococcus faecalis (GC 2691) (Enterococcus sp.; inoculum 5×10^5 CFU/mL): 2 µg/mL (≈ 1.34 µM) | MIC Enterococcus faecalis (GC 3059) (Enterococcus sp.; inoculum 5×10^5 CFU/mL): 2 µg/mL (≈ 1.34 µM) | MIC Enterococcus faecalis (GC 4552) (Enterococcus sp.; inoculum 5×10^5 CFU/mL): 2 µg/mL (≈ 1.34 µM) | MIC Enterococcus faecalis (GC 4553) (Enterococcus sp.; inoculum 5×10^5 CFU/mL): 2 µg/mL (≈ 1.34 µM) | MIC Enterococcus faecalis (GC 4554) (Enterococcus sp.; inoculum 5×10^5 CFU/mL): 2 µg/mL (≈ 1.34 µM) | MIC Enterococcus faecium (GC 4556) (Enterococcus sp.; inoculum 5×10^5 CFU/mL): 1 µg/mL (≈ 0.672 µM) | MIC Enterococcus faecium (GC 4557) (Enterococcus sp.; inoculum 5×10^5 CFU/mL): 2 µg/mL (≈ 1.34 µM) | MIC Enterococcus avium (GC 4558) (Enterococcus sp.; inoculum 5×10^5 CFU/mL): 1 µg/mL (≈ 0.672 µM) | MIC Enterococcus faecalis (GC 6189) (Enterococcus sp.; inoculum 5×10^5 CFU/mL): 1 µg/mL (≈ 0.672 µM) | MIC Enterococcus faecalis (ATCC 29212) (Enterococcus sp.): 1 µg/mL (≈ 0.672 µM) | MIC Enterococcus faecalis (GC 2242) (Enterococcus sp.): 2 µg/mL (≈ 1.34 µM) | MIC Enterococcus faecium (GC 2243) (Enterococcus sp.): 2 µg/mL (≈ 1.34 µM) | MIC Enterococcus faecalis (GC 2691) (Enterococcus sp.): 2 µg/mL (≈ 1.34 µM) | MIC Enterococcus faecalis (GC 3059) (Enterococcus sp.): 2 µg/mL (≈ 1.34 µM) | MIC Enterococcus faecalis (GC 4552) (Enterococcus sp.): 2 µg/mL (≈ 1.34 µM) | MIC Enterococcus faecalis (GC 4553) (Enterococcus sp.): 2 µg/mL (≈ 1.34 µM) | MIC Enterococcus faecalis (GC 4554) (Enterococcus sp.): 2 µg/mL (≈ 1.34 µM) | MIC Enterococcus faecium (GC 4556) (Enterococcus sp.): 1 µg/mL (≈ 0.672 µM) | MIC Enterococcus faecium (GC 4557) (Enterococcus sp.): 2 µg/mL (≈ 1.34 µM) | MIC Enterococcus avium (GC 4558) (Enterococcus sp.): 1 µg/mL (≈ 0.672 µM) | MIC Enterococcus faecalis (GC 6189) (Enterococcus sp.): 1 µg/mL (≈ 0.672 µM) | MIC Streptococcus pneumoniae (ATCC 6301) (Streptococcus sp.; inoculum 5×10^5 CFU/mL): <0.12 µg/mL | MIC Streptococcus pneumoniae (GC 1894) (Streptococcus sp.; inoculum 5×10^5 CFU/mL): <0.12 µg/mL | MIC Streptococcus pyogenes (GC 4563) (Streptococcus sp.; inoculum 5×10^5 CFU/mL): <0.12 µg/mL | MIC Streptococcus agalactiae (GC 4564) (Streptococcus sp.; inoculum 5×10^5 CFU/mL): <0.12 µg/mL | MIC Streptococcus pneumoniae (GC 4565) (Streptococcus sp.; inoculum 5×10^5 CFU/mL): <0.12 µg/mL | MIC Streptococcus pneumoniae (ATCC 6301) (Streptococcus sp.): <0.12 µg/mL | MIC Streptococcus pneumoniae (GC 1894) (Streptococcus sp.): <0.12 µg/mL | MIC Streptococcus pyogenes (GC 4563) (Streptococcus sp.): <0.12 µg/mL | MIC Streptococcus agalactiae (GC 4564) (Streptococcus sp.): <0.12 µg/mL | MIC Streptococcus pneumoniae (GC 4565) (Streptococcus sp.): <0.12 µg/mL | MIC Escherichia coli (ATCC 25922) (Escherichia coli; strain ATCC 25922, 18 hours at 35° C.): 32 µg/mL (≈ 21.5 µM) | MIC Escherichia coli (GC 4559) (Escherichia coli; strain GC 4559, 18 hours at 35° C.): 16 µg/mL (≈ 10.8 µM) | MIC Escherichia coli (GC 4560) (Escherichia coli; strain GC 4560, 18 hours at 35° C.): 0.5 µg/mL (≈ 0.336 µM) | MIC Staphylococcus aureus (GC 1131) (Staphylococcus sp.; inoculum 5×10^5 CFU/mL): 2 µg/mL (≈ 1.34 µM) | MIC Staphylococcus aureus (ATCC 29213) (Staphylococcus sp.; strain ATCC 29213): 1 µg/mL (≈ 0.672 µM) | MIC Staphylococcus aureus (GC 1131) (Staphylococcus sp.): 2 µg/mL (≈ 1.34 µM) | MIC Staphylococcus aureus (GC 3051) (Staphylococcus sp.; strain GC 3051): 0.5 µg/mL (≈ 0.336 µM) | MIC Staphylococcus aureus (GC 3053) (Staphylococcus sp.; strain GC 3053): 1 µg/mL (≈ 0.672 µM) | MIC Staphylococcus aureus (GC 4541) (Staphylococcus sp.; strain GC 4541): 0.5 µg/mL (≈ 0.336 µM) | MIC Staphylococcus aureus (GC 4542) (Staphylococcus sp.; strain GC 4542): 0.5 µg/mL (≈ 0.336 µM) | MIC Staphylococcus aureus-SMITH (GC 4543) (Staphylococcus sp.; strain GC 4543): 0.5 µg/mL (≈ 0.336 µM) | MIC Staphylococcus aureus (GC 4544) (Staphylococcus sp.; strain GC 4544): 2 µg/mL (≈ 1.34 µM) | MIC Staphylococcus aureus (GC 4545) (Staphylococcus sp.; strain GC 4545): 2 µg/mL (≈ 1.34 µM) | MIC Coagulase Negative Staphylococcus (GC 4547) (Staphylococcus sp.; strain GC 4547): 2 µg/mL (≈ 1.34 µM) | MIC Coagulase Negative Staphylococcus (GC 4548) (Staphylococcus sp.; strain GC 4548): 0.5 µg/mL (≈ 0.336 µM) | MIC Coagulase Negative Staphylococcus (GC 4549) (Staphylococcus sp.; strain GC 4549): 0.25 µg/mL (≈ 0.168 µM) | MIC Coagulase Negative Staphylococcus (GC 4551) (Staphylococcus sp.; strain GC 4551): 0.5 µg/mL (≈ 0.336 µM) | MIC Coagulase Negative Staphylococcus (GC 6257) (Staphylococcus sp.; strain GC 6257): 0.5 µg/mL (≈ 0.336 µM)
Structure (SMILES): CC(c1ccccc1)C1NC(=O)CNC(=O)C(CO)NC(=O)C(C(O)C2CNC(=N)N2C2OC(CO)C(O)C(O)C2O)NC(=O)C(C(O)C2CNC(=N)N2)NC(=O)C(Cc2ccc(OC3OC(CO)C(OC4OC5COC(c6ccc(C(=O)c7ccccc7)cc6)OC5C(O)C4O)C(O)C3O)cc2)NC1=O (centres unmarked) [Example 173]
MIC Staphylococcus haemolyticus (GC 4546) (Staphylococcus sp.; strain GC 4546): 1 µg/mL (≈ 0.672 µM)

From US6914045B2, “Glycopeptide antibiotics” (Wyeth Holdings Corporation, priority 2001, dated 2005)
